Results: patent US9743685B2, “Mixtures having improved cooling effect” (SYMRISE AG, priority 2012, dated 2017)

Assay: Sensory comparison of flavored formulation examples with the flavor not according to the invention
Type: in vivo

## C/C=C(/C=O)c1ccccc1 [2-phenyl-but-2-enal, 2-Phenyl-but-2-enal]
Standard chewing gum, 2% peppermint type flavor (Example 2.11)
  Sensory effect compared to the flavor not according to the invention: intensified feeling of freshness together with an increased menthol taste and perception of coolness
sugar-free chewing gum, 1% Cinnamon type flavor Cool (Example 2.10), especially in the initial phase of consumption
  Sensory effect compared to the flavor not according to the invention: intensified feeling of freshness together with an increased menthol taste and perception of coolness
Toothpaste (Silica opaque), 1% peppermint type flavor Cool (Example 2.14)
  Sensory effect compared to the flavor not according to the invention: fresher mouthfeel together with an increased menthol taste and perception of coolness
Toothpaste (phosphate base), 1% spearmint type flavor (Example 2.12), especially at the start of brushing
  Sensory effect compared to the flavor not according to the invention: definite feeling of freshness together with an increased menthol taste and perception of coolness
Toothpaste (transparent gel), 1% cinnamon type flavor (Example 2.13)
  Sensory effect compared to the flavor not according to the invention: clearer freshness profile together with an increased menthol taste and perception of coolness
